How the values were obtained:
[1] = target: muscarinic receptors (3H-oxotremorine-M binding); test: 3H-oxotremorine-M binding study; conditions: radioligand 3H-oxotremorine-M; read-out: inhibition constant (Ki) for binding of 3H-oxotremorine-M
[2] = test system: m4 receptors (CHO m4 cells); test: cAMP formation in CHO m4 cells treated with pertussis toxin; type: cell-based
Description: Muscarinic agonists stimulate the formation of CAMP up to 10 fold in CHO m4 cells treated with pertussisi toxin and the pharmacology is consistent with the mediation by m4 receptors. Eckols K. Soc. Neurosci Abstr., 21:2040 (1995).

Q: How did the Ki [1] turn out when `CCCCCCOc1nsnc1C1=CCCN(C)C1` [xanomeline, 3-(4-hexyloxy-1,2,5-thiadiazol-3-yl)-1,2,5,6-tetrahydro-1-methylpyridine] was run?
A: 2 nM

Q: What about the “stimulation of formation of cAMP” value [2] of the same compound?
A: efficaciously and potently stimulated the formation of cAMP
